Assays:
[1] = tested on: J774 macrophages; experiment: Radioactive cholesterol efflux from J774 macrophages; type: cell-based, mouse; details: Study N; 0.03 to 10 mM; 6 hours
Method: J774 macrophages obtained from ATCC (No TIB-67) were grown in Dulbecco's modified Eagle's medium (DMEM, Invitrogen) supplemented with 10% FBS (foetal bovine serum, Invitrogen), 100 units/ml penicillin G (Invitrogen), and 100 units/ml streptomycin (Invitrogen) at 37° C. with 5% CO2. Cells were seeded on 24-well plates (Falcon) at 40,000 cells/well and grown for 32 hours in 2 ml DMEM 10% FBS. LDL oxidation: 1 ml LDL is dialyzed against 4 L PBS (twice, 12 hours each) in Slide-A-Lyzer™ Mini Dialysis Units 7000MWCO (Pierce).
[1] After dialysis, proteins-LDL are quantified with Coomassie protein assay (#1856209, ThermoScientific) using albumin (#23209, ThermoScientific) as standards. Absorbance is read with Glomax multi detection System (Promega) at 600 nm. […] After dialysis, proteins-LDL are quantified by same method as. […]
The efflux is induced by adding different acceptors for 6 hours (or different time between 1 to 24 hours) in 250 μl DMEM without FBS. Radioactivity was measured by adding the medium (0.25 ml) to Super Mix (0.75 ml) (1200-439 Perkin-Elmer), mixed in 24 well flexible microplate (1450-402 Perkin-Elmer) and radioactivity was measured with MicroBeta® Trilux (2 minutes counting time). The intracellular [^3H] cholesterol was extracted by 0.2 ml hexane-isopropanol (3:2) (incubation 0.5 hours) and measured by liquid scintillation counting. […]

[2] = tested on: diet-induced atherosclerosis in LDL receptor knock-out mice; details: several infusions; cited from earlier work
[3] = CHI SQUARE tolerability; type: in vivo, human; details: 3, 6, and 12 mg/kg
Source text: (§1) 504 subjects presenting with acute chest pain or other angina equivalent symptoms, indicative of a diagnosis of ST segment elevation myocardial infarction, non-ST elevation myocardial infarction or unstable angina were enrolled. To be eligible, subjects must have angiographic evidence of coronary artery disease as defined by at least one lesion in any of the three major native coronary arteries that has >20% reduction in lumen diameter by angiographic visual estimation or prior history of percutaneous coronary intervention (“PCI”). The target vessel for PCI was not the target coronary artery for research IVUS, and any vessel with previous PCI could not be used as the target coronary artery.

[4] = tested on: total plaque volume in a 30 mm segment of the target coronary artery; experiment: CHI SQUARE phase II trial, IVUS first approach; type: in vivo, human
Source text: as §1
The study design is illustrated in FIG. 1. The primary endpoint was the nominal change in total plaque volume in a 30 mm segment of the target coronary artery assessed by 3 dimensional IVUS (intra-vascular ultrasound). The key secondary endpoints were % change in plaque volume and change in % atheroma volume in the target 30 mm segment, the change in total vessel volume in the target 30 mm segment, and changes in plaque, lumen and total vessel volumes from baseline in the least and most diseased 5 mm segments. Morbidity and mortality were exploratory endpoints.
Mean total atheroma volume at baseline was 155.24±67.99 mm^3. The adjusted means for change in total atheroma volume were −2.71, −3.13, −1.50 and −3.05 mm^3 in the placebo, CER-001 3 mg/kg, CER-001 6 mg/kg and CER-001 12 mg/kg groups, respectively (p=0.81 for the prespecified primary analysis of 12 mg/kg versus placebo). There were also no differences compared to placebo for the CER-001 6 mg/kg (nominal p=0.45) and 3 mg/kg (nominal p=0.77) groups. The change in percent atheroma volume was similar among all study groups (0.02, −0.02, 0.01 and 0.19% in the placebo, CER-001 3 mg/kg (p=0.86), CER-001 6 mg/kg (p=0.95) and CER-001 12 mg/kg (p=0.53) groups (nominal p-values versus placebo).
In contrast to the “walk-along” approach discussed below, frame pairs were individually selected for optimum readability. Frames were selected based upon absence of echogenicity (calcium) and side branches. A maximum of 31 frames were selected over a 30 mm segment, excluding the benefit of pull-backs longer than 30 mm. No pre-defined criteria were used to select the 31 frames for inclusion in analysis set when >31 frames available.

Compound	cholesterol efflux [1]	vascular inflammation and atherosclerosis [2]	tolerability [3]	toxicities in laboratory parameters [3]	adjusted mean change in total atheroma volume ([4]; 3 mg/kg) [mm^3]	change in percent atheroma volume ([4]; 3 mg/kg) [%]	adjusted mean change in total atheroma volume ([4]; 6 mg/kg) [mm^3]	change in percent atheroma volume ([4]; 6 mg/kg) [%]	adjusted mean change in total atheroma volume ([4]; 12 mg/kg) [mm^3]	change in percent atheroma volume ([4]; 12 mg/kg) [%]
OC[C@H]1O[C@@H]2O[C@H]3[C@H](O)[C@@H](O)[C@@H](O[C@H]4[C@H](O)[C@@H](O)[C@@H](O[C@H]5[C@H](O)[C@@H](O)[C@@H](O[C@H]6[C@H](O)[C@@H](O)[C@@H](O[C@H]7[C@H](O)[C@@H](O)[C@@H](O[C@H]8[C@H](O)[C@@H](O)[C@@H](O[C@H]1[C@H](O)[C@H]2O)O[C@@H]8CO)O[C@@H]7CO)O[C@@H]6CO)O[C@@H]5CO)O[C@@H]4CO)O[C@@H]3CO [β-cyclodextrin, reference compound]	dose-dependent increase	–	–	–	–	–	–	–	–	–
CER-001: engineered recombinant human apolipoprotein A-I HDL with sphingomyelin and DPPG; protein-to-phospholipid ratio 1:2.7, 97% Sph and 3% DPPG	–	reduce vascular inflammation and promote regression of diet-induced atherosclerosis	well-tolerated overall	no apparent dose-related toxicities in laboratory parameters	−3.13	−0.02	−1.50	0.01	−3.05	0.19

From patent publication US20180203025A1, “HDL THERAPY MARKERS” (Cerenis Therapeutics Holding SA, priority 2014, published 2018)
